Test results from article PMC10477861, “Efficient Mining of Anticancer Peptides from Gut Metagenome” (Advanced Science, 2023).
Where no end group is shown, it is not given here.

Legend:
MDA-MB-436 = test: MTT primary screening of anticancer activity, MDA-MB-436; type: cell-based; conditions: 25 µM pACP, 24 h, maintenance medium 1% FBS, ratio of viability to vehicle (PBS), at least three technical repetitions
In short: (§1)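 Cultures grown to 60% confluence; complete medium replaced by 1% FBS maintenance medium; peptide added at 25 µM final; incubated 24 h; viability assessed by MTT.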

Hela = test: MTT primary screening of anticancer activity, Hela; type: cell-based, Human; conditions: 25 µM pACP, 24 h, maintenance medium 1% FBS, ratio of viability to vehicle (PBS), at least three technical repetitions
In short: as §1

MDA-MB-468 = test: MTT primary screening of anticancer activity, MDA-MB-468; type: cell-based; conditions: 25 µM pACP, 24 h, maintenance medium 1% FBS, ratio of viability to vehicle (PBS), at least three technical repetitions
In short: as §1

CT26 cells = test: Propidium iodide (PI) assay of CT26 membrane damage; type: cell-based, Murine; conditions: pACP1780 6.23 µM, pACP2283 10.56 µM, 1, 2, 6, 12 h, PI 10 µg ml-1 45 min, ex/em 535/617 nm
Description: To explore the anticancer effects of pACP2283 and pACP1780 at the cellular level, we co‐cultured confluent CT26 cells with these pACPs.
Cell viability was assessed using propidium iodide (PI, ZS822‐1) according to the manufacturer's instructions. Briefly, CT26 cells were seeded in a 96‐well plate at a density of 1×10^4 cells per well. After 24 h, pACP1780 and pACP2283 were added to the wells at concentrations of 6.23 and 10.56 µM, respectively. The plate was then incubated for 1, 2, 6, and 12 h. Subsequently, the cells were cultured in medium containing 10 µg ml^−1 PI for 45 min. The fluorescence intensity was measured using a CytationTM 5 instrument (Bio Tek) with excitation/emission wavelengths of 535/617 nm.

BT474 = test: MTT primary screening of anticancer activity, BT474; type: cell-based; conditions: 25 µM pACP, 24 h, maintenance medium 1% FBS, ratio of viability to vehicle (PBS), at least three technical repetitions
In short: as §1

MCF7 = test: MTT primary screening of anticancer activity, MCF7; type: cell-based; conditions: 25 µM pACP, 24 h, maintenance medium 1% FBS, ratio of viability to vehicle (PBS), at least three technical repetitions
In short: as §1

B16 = test: MTT primary screening of anticancer activity, B16; type: cell-based, Mouse; conditions: 25 µM pACP, 24 h, maintenance medium 1% FBS, ratio of viability to vehicle (PBS), at least three technical repetitions
In short: as §1

tumor-free mice = test: Acute toxicity in tumor-free mice; type: in vivo; conditions: for growth rate of body weight: after injection into the abdomen at 50 mg kg-1, gradually recovered over the next five days; for symptoms of illness or body weight loss, acute toxicity: injected into the abdomen at 2, 10 and 50 mg kg-1 over three days, up to 50 mg kg-1
Description: Furthermore, we investigated the safety of pACP2283 and pACP1780 both in vivo and in vitro. […] Additionally, we conducted an acute toxicity experiment in tumor‐free mice by administering pACPs with increasing concentrations into the abdomen. […] This temporary decrease in body weight growth rate may be attributed to the high concentrations of pACPs, which temporarily disturbed the mice's homeostasis.
To assess the toxicity of pACP1780 and pACP2283 at the cellular level, HEK293 cells were grown to 60% confluence in complete medium (10% FBS) for 24 h, and then treated with increasing concentrations (1.5, 3, 6, 12.5, 25, 50, and 100 µM) of each pACPs in maintenance medium (1% FBS) for 24 h. The viability of HEK293 cells was determined using the MTT Cell Proliferation and Cytotoxicity Assay Kit following the manufacturer's instructions. For acute toxicity in tumor‐free mice, the pACPs were injected into the abdomen at increasing concentrations of 2, 10, and 50 mg kg^−1 of mouse weight over three days, and the body weights were recorded throughout the process.

MDA-MB-453 = test: MTT primary screening of anticancer activity, MDA-MB-453; type: cell-based; conditions: 25 µM pACP, 24 h, maintenance medium 1% FBS, ratio of viability to vehicle (PBS), at least three technical repetitions
In short: as §1

SK-BR-3 = test: MTT primary screening of anticancer activity, SK-BR-3; type: cell-based; conditions: 25 µM pACP, 24 h, maintenance medium 1% FBS, ratio of viability to vehicle (PBS), at least three technical repetitions
In short: as §1

EFM192A = test: MTT primary screening of anticancer activity, EFM192A; type: cell-based; conditions: 25 µM pACP, 24 h, maintenance medium 1% FBS, ratio of viability to vehicle (PBS), at least three technical repetitions
In short: as §1

Caco2 = test: MTT primary screening of anticancer activity, Caco2; type: cell-based, Human; conditions: 25 µM pACP, 24 h, maintenance medium 1% FBS, ratio of viability to vehicle (PBS), at least three technical repetitions
In short: as §1

T47D = test: MTT primary screening of anticancer activity, T47D; type: cell-based; conditions: 25 µM pACP, 24 h, maintenance medium 1% FBS, ratio of viability to vehicle (PBS), at least three technical repetitions
In short: as §1

HT29 = test: MTT primary screening of anticancer activity, HT29; type: cell-based, Human; conditions: 25 µM pACP, 24 h, maintenance medium 1% FBS, ratio of viability to vehicle (PBS), at least three technical repetitions
In short: as §1

MDA-MB-231 = test: MTT primary screening of anticancer activity, MDA-MB-231; type: cell-based; conditions: 25 µM pACP, 24 h, maintenance medium 1% FBS, ratio of viability to vehicle (PBS), at least three technical repetitions
In short: as §1

## RRFAWIGKLQSRKVRNNIRQYRTKIVRQMRRQIFRQMKQKAE [pACP1780]
MDA-MB-436
  Survival rate of cancer cells in primary screening: 0.00535
Hela
  Survival rate of cancer cells in primary screening: 0.00724
MDA-MB-468
  Survival rate of cancer cells in primary screening: 0.19
CT26 cells
  PI fluorescence intensity (damaged cell membranes): significantly increased fluorescence intensity
BT474
  Survival rate of cancer cells in primary screening: 0.03
MCF7
  Survival rate of cancer cells in primary screening: 0.0113
B16
  Survival rate of cancer cells in primary screening: 0.41
tumor-free mice
  growth rate of body weight: slight decrease
  symptoms of illness or body weight loss, acute toxicity: no significant symptoms of illness or body weight loss
MDA-MB-453
  Survival rate of cancer cells in primary screening: 0.085
SK-BR-3
  Survival rate of cancer cells in primary screening: 0.03
EFM192A
  Survival rate of cancer cells in primary screening: 0.01
Caco2
  Survival rate of cancer cells in primary screening: 0.74
T47D
  Survival rate of cancer cells in primary screening: 0.0167
HT29
  Survival rate of cancer cells in primary screening: 0.33
MDA-MB-231
  Survival rate of cancer cells in primary screening: 0.09

## WWRRAERSVRRFFGTPIGPFPEIFGRRKAHKKKIIAKFDSVNG [pACP2283]
MDA-MB-436
  Survival rate of cancer cells in primary screening: 0.00645
Hela
  Survival rate of cancer cells in primary screening: 0.00225
MDA-MB-468
  Survival rate of cancer cells in primary screening: 0.09
CT26 cells
  PI fluorescence intensity (damaged cell membranes): significantly increased fluorescence intensity
BT474
  Survival rate of cancer cells in primary screening: 0.02
MCF7
  Survival rate of cancer cells in primary screening: 0.0549
B16
  Survival rate of cancer cells in primary screening: 0.28
tumor-free mice
  growth rate of body weight: slight decrease
  symptoms of illness or body weight loss, acute toxicity: no significant symptoms of illness or body weight loss
MDA-MB-453
  Survival rate of cancer cells in primary screening: 0.03
SK-BR-3
  Survival rate of cancer cells in primary screening: 0.0341
EFM192A
  Survival rate of cancer cells in primary screening: 0.15
Caco2
  Survival rate of cancer cells in primary screening: 1.00
T47D
  Survival rate of cancer cells in primary screening: 0.0119
HT29
  Survival rate of cancer cells in primary screening: 0.51
MDA-MB-231
  Survival rate of cancer cells in primary screening: 0.06
